# System: α-ketoglutaric semialdehyde dehydrogenase KDHba
# Assay: Enzymatic assay of KDHba (NADH absorbance at 340 nm)
# Type: biochemical, Burkholderia ambifaria
# [1] = substrate of KDHba, pH 8.0, 0.5 mM NAD+
smiles,measurement,setting,value
"CCCCC=O [Valeraldehyde, valeraldehyde]",Km,[1],31 µM
same,kcat,[1],8.69 ± 0.26 s⁻¹
same,"specificity constant (kcat/KM) of KDHba, fold higher than toward isobutyraldehyde",versus isobutyraldehyde,1260 fold
same,"specificity constant (kcat/KM) of KDHba, fold higher than toward isovaleraldehyde",versus isovaleraldehyde,308 fold
